The assay relates to L1210 leukemia ip in BDF1 mice, survival T/C. Description: NCI In Vivo Anticancer Drug Screen. Data for tumor model L1210 Leukemia (intraperitoneal) in B6D2F1 (BDF1) mice. The following applies: endpoint: mean survival time, higher = longer survival. An outline of the steps:
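Each compound was tested against a transplantable tumor grown in mice. The endpoint was survival, with treated animals benchmarked against vehicle controls as a simple ratio.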

The mark [1] stands for this setting: dose: 50.0 mg/kg/injection, schedule: Q01DX009 (ip), vehicle: saline.
Setting [2] is: dose: 100.0 mg/kg/injection, schedule: Q01DX001 (ip), vehicle: saline.
[3] abbreviates: dose: 200.0 mg/kg/injection, schedule: Q01DX001 (ip), vehicle: saline.
[4] abbreviates: dose: 400.0 mg/kg/injection, schedule: Q01DX001 (ip), vehicle: saline.
[5] abbreviates: dose: 100.0 mg/kg/injection, schedule: Q04DX003 (ip), vehicle: saline.
Where [6] appears, read: dose: 100.0 mg/kg/injection, schedule: Q01DX009 (ip), vehicle: saline with Tween-80.
Where [7] appears, read: dose: 200.0 mg/kg/injection, schedule: Q01DX009 (ip), vehicle: saline with Tween-80.
Where [8] appears, read: dose: 400.0 mg/kg/injection, schedule: Q01DX009 (ip), vehicle: saline with Tween-80.
The mark [9] stands for this setting: dose: 100.0 mg/kg/injection, schedule: Q04DX003 (ip), vehicle: saline with Tween-80.
Where [10] appears, read: dose: 200.0 mg/kg/injection, schedule: Q04DX003 (ip), vehicle: saline with Tween-80.

Several values for one entry are separate records, joined by “and”; a condition that tells them apart may be missing. Equal values may be shown once. Toxic doses and inconclusive results are not listed.

Turning to `CCCCCCCSc1ncnc2c1ncn2CO`, the T/C under setting [1] is 104 % of control; the T/C (dose: 80.0 mg/kg/injection, schedule: Q01DX009 (ip), vehicle: saline) was 107 % of control; the T/C under setting [2] was 101 % of control; the T/C (dose: 117.0 mg/kg/injection, schedule: Q01DX009 (ip), vehicle: other) is 114 % of control; the T/C (dose: 120.0 mg/kg/injection, schedule: Q01DX009 (ip), vehicle: saline) was 104 % of control; the T/C under setting [3] was 95 % of control. Besides, the T/C reads like this: under setting [4], 115 % of control; (dose: 400.0 mg/kg/injection, schedule: Q01DX009 (ip), vehicle: saline) 164 % of control.
As for `Cc1ccc(S(=O)(=O)Nc2cccc3cc(Cl)ccc23)cc1`, the T/C runs as follows: (dose: 100.0 mg/kg/injection, schedule: Q04DX003 (ip), vehicle: acetone) 94 % of control; (dose: 200.0 mg/kg/injection, schedule: Q04DX003 (ip), vehicle: acetone) 105 % of control; (dose: 400.0 mg/kg/injection, schedule: Q04DX003 (ip), vehicle: acetone) 91 % of control.
For `Clc1cc[c]([Sn]([O][Sn]([c]2ccc(Cl)cc2)([c]2ccc(Cl)cc2)[c]2ccc(Cl)cc2)([c]2ccc(Cl)cc2)[c]2ccc(Cl)cc2)cc1`, the T/C (dose: 25.0 mg/kg/injection, schedule: Q04DX002 (ip), vehicle: Klucel (hydroxypropylcellulose) (HPC)) was 107 % of control and the T/C (dose: 50.0 mg/kg/injection, schedule: Q04DX002 (ip), vehicle: Klucel (hydroxypropylcellulose) (HPC)) was 91 % of control.
Turning to `CC(C)N(CCN)C(C)C`, the T/C was 94 % of control under setting [1]; 103 % of control (dose: 100.0 mg/kg/injection, schedule: Q01DX009 (ip), vehicle: saline); 95 % of control under setting [5]; 103 % of control (dose: 200.0 mg/kg/injection, schedule: Q01DX009 (ip), vehicle: saline); 97 % of control (dose: 200.0 mg/kg/injection, schedule: Q04DX003 (ip), vehicle: saline).
As for `Cc1cc(Cl)c([N+](=O)[O-])c(P(=O)(O)O)c1`, the T/C is 90 % of control (dose: 75.0 mg/kg/injection, schedule: Q01DX001 (ip), vehicle: saline); 90 % of control (dose: 150.0 mg/kg/injection, schedule: Q01DX001 (ip), vehicle: saline); 96 % of control (dose: 300.0 mg/kg/injection, schedule: Q01DX001 (ip), vehicle: saline).
In the case of `COP(=S)(OC)N1CC1`, the T/C is, setting by setting: (dose: 11.1 mg/kg/injection, schedule: Q01DX Z (ip), vehicle: saline) 108 % of control; (dose: 16.6 mg/kg/injection, schedule: Q01DX Z (ip), vehicle: saline) 100 % of control; (dose: 25.0 mg/kg/injection, schedule: Q01DX Z (ip), vehicle: saline) 100 % of control.
As for `CCN(CC)C(=S)SC(C)C(=O)OC` (stereo not drawn), the T/C was 96 % of control (dose: 100.0 mg/kg/injection, schedule: Q04DX002 (ip), vehicle: Klucel (hydroxypropylcellulose) (HPC)); 107 % of control (dose: 200.0 mg/kg/injection, schedule: Q04DX002 (ip), vehicle: Klucel (hydroxypropylcellulose) (HPC)); 103 % of control (dose: 400.0 mg/kg/injection, schedule: Q04DX002 (ip), vehicle: Klucel (hydroxypropylcellulose) (HPC)).
Consider `CC(C)N(C(=O)Nc1cc([N+](=O)[O-])ccc1Cl)c1ccccc1`, for which the T/C by setting is: (dose: 12.5 mg/kg/injection, schedule: Q01DX009 (ip), vehicle: Klucel (hydroxypropylcellulose) (HPC)) 89 % of control; (dose: 25.0 mg/kg/injection, schedule: Q01DX009 (ip), vehicle: Klucel (hydroxypropylcellulose) (HPC)) 96 % of control; (dose: 50.0 mg/kg/injection, schedule: Q01DX009 (ip), vehicle: Klucel (hydroxypropylcellulose) (HPC)) 98 % of control.
Turning to `O=C(O)c1c(Br)c(Br)c(Br)c(Br)c1-c1c2ccc(=O)c(O)c-2oc2c(O)c(O)ccc12`, the T/C is 108 % of control (dose: 12.5 mg/kg/injection, schedule: Q04DX003 (ip), vehicle: saline); 103 % of control (dose: 25.0 mg/kg/injection, schedule: Q04DX003 (ip), vehicle: saline); 105 % of control (dose: 50.0 mg/kg/injection, schedule: Q04DX003 (ip), vehicle: saline); 102 % of control under setting [5].
For `O=C1c2ccccc2-c2c(I)cccc21`, the T/C is, setting by setting: (dose: 25.6 mg/kg/injection, schedule: Q04DX002 (ip), vehicle: saline with Tween-80) 94 % of control; (dose: 64.0 mg/kg/injection, schedule: Q04DX002 (ip), vehicle: saline with Tween-80) 94 % of control; (dose: 160.0 mg/kg/injection, schedule: Q04DX002 (ip), vehicle: saline with Tween-80) 98 % of control; (dose: 400.0 mg/kg/injection, schedule: Q04DX002 (ip), vehicle: saline with Tween-80) 94 % of control.
For the compound `CC(=O)Nc1ccc(S(=O)(=O)Nc2cc(Cl)ccc2Cl)cc1`, the T/C under setting [6] is 103 % of control, the T/C under setting [7] is 102 % of control and the T/C under setting [8] was 97 % of control.
On to `C/C(=N/C(=O)NN)c1ccc(Cl)cc1`, for which the T/C reads like this: (dose: 100.0 mg/kg/injection, schedule: Q01DX001 (ip), vehicle: saline with Tween-80) 108 % of control; under setting [9], 93 % of control; (dose: 200.0 mg/kg/injection, schedule: Q01DX001 (ip), vehicle: saline with Tween-80) 95 % of control; under setting [10], 98 % of control; (dose: 400.0 mg/kg/injection, schedule: Q01DX001 (ip), vehicle: saline with Tween-80) 101 % of control.
On to `COc1ccc(CN2CCN(Cc3ccc(OC)c(OC)c3)C2c2ccc(OC)c(OC)c2)cc1OC`, for which the T/C was 94 % of control under setting [6]; 102 % of control under setting [9]; 104 % of control under setting [7]; 93 % of control under setting [10]; 108 % of control under setting [8]; 91 % of control (dose: 400.0 mg/kg/injection, schedule: Q04DX003 (ip), vehicle: saline with Tween-80).
Consider `COC(=O)c1ccc(OC(=O)Nc2cccc(C(C)=O)c2)cc1`, for which the T/C was 96 % of control (dose: 100.0 mg/kg/injection, schedule: Q01DX009 (ip), vehicle: Klucel (hydroxypropylcellulose) (HPC)); 101 % of control (dose: 200.0 mg/kg/injection, schedule: Q01DX009 (ip), vehicle: Klucel (hydroxypropylcellulose) (HPC)); 104 % of control (dose: 400.0 mg/kg/injection, schedule: Q01DX009 (ip), vehicle: Klucel (hydroxypropylcellulose) (HPC)).
Regarding `Nc1ccc(Cc2ccc(N)cc2)cc1`, the T/C is, setting by setting: (dose: 25.0 mg/kg/injection, schedule: Q01DX009 (ip), vehicle: gum acacia) 95 % of control; (dose: 50.0 mg/kg/injection, schedule: Q01DX009 (ip), vehicle: gum acacia) 105 % of control; (dose: 100.0 mg/kg/injection, schedule: Q01DX009 (ip), vehicle: gum acacia) 105 % of control and 112 % of control.
For the compound `C[n+]1cn(CCCl)c2ccccc21`, the T/C is 93 % of control (dose: 10.0 mg/kg/injection, schedule: Q01DX Z (ip), vehicle: saline) and 95 % of control (dose: 30.0 mg/kg/injection, schedule: Q01DX Z (ip), vehicle: saline).
As to `Cc1[nH]c(=S)[nH]c(=O)c1CCC(C)C`, the T/C is 113 % of control (dose: 100.0 mg/kg/injection, schedule: Q04DX003 (ip), vehicle: Klucel (hydroxypropylcellulose) (HPC)); 100 % of control (dose: 200.0 mg/kg/injection, schedule: Q04DX003 (ip), vehicle: Klucel (hydroxypropylcellulose) (HPC)); 106 % of control (dose: 400.0 mg/kg/injection, schedule: Q04DX003 (ip), vehicle: Klucel (hydroxypropylcellulose) (HPC)).
With `CC(=O)c1ccccc1OCC(O)CN1CCN(c2ccccc2Cl)CC1` (stereo not drawn), the T/C (dose: 37.5 mg/kg/injection, schedule: Q01DX009 (ip), vehicle: saline with Tween-80) was 97 % of control; the T/C (dose: 37.5 mg/kg/injection, schedule: Q04DX003 (ip), vehicle: saline with Tween-80) was 105 % of control; the T/C (dose: 75.0 mg/kg/injection, schedule: Q01DX009 (ip), vehicle: saline with Tween-80) is 89 % of control; the T/C (dose: 75.0 mg/kg/injection, schedule: Q04DX003 (ip), vehicle: saline with Tween-80) was 108 % of control; the T/C (dose: 150.0 mg/kg/injection, schedule: Q01DX009 (ip), vehicle: saline with Tween-80) was 93 % of control; the T/C (dose: 150.0 mg/kg/injection, schedule: Q04DX003 (ip), vehicle: saline with Tween-80) was 94 % of control.
For `CCSC(=O)N=Nc1ccc(O)cc1`, the T/C (dose: 50.0 mg/kg/injection, schedule: Q01DX001 (ip), vehicle: saline) was 103 % of control; the T/C under setting [2] was 100 % of control; the T/C under setting [3] was 94 % of control; the T/C under setting [4] was 111 % of control.

(Values after PubChem BioAssay AID248 (DTP/NCI, 2004).)
